From a melting point compilation (Tetko et al.; mined from patent text by program, amines drawn as free bases though some values may be those of a salt) come the findings set out here.

The structures appear in SMILES notation.

The melting point is the temperature, or range, at which the solid turns liquid. Regarding `COc1ccc(-c2cccc3c(C(C)C)c(C)nn23)c(Cl)c1`, the melting point was 112 to 115 °C.

For `COC(=O)c1ccccc1-c1nc(COc2ccc(COc3nn(-c4ccccc4)cc3C=O)cc2OC)c(C)o1`, the melting point was 134 to 135 °C. `CC(C)Cn1c(-c2ccccc2)nc2cnc3ccccc3c21` gave a melting point of 139 to 140 °C. The molecule `CN1CCC(c2c[nH]c3ccc(CCS(N)(=O)=O)cc23)CC1` returned a melting point of more than 95 °C. `CN(C)c1c(Cl)cc(C(O)CNC(C)(C)C)cc1Cl` (stereo not drawn): the melting point was in the range of 96 to 99 °C.

`CCN(Cc1csc(C(C)C)n1)C(=O)N[C@H](C(=O)N[C@@H](Cc1ccccc1)C[C@H](O)[C@H](Cc1ccccc1)NC(=O)OCc1cncs1)C(C)C` gave a melting point of 58 to 60 °C. The molecule `O=c1nc(O)ccc2ccccc12` showed a melting point of 129 to 131 °C. To `CC1(c2cccs2)Cc2cc(OCC(=O)O)c(Cl)c(Cl)c2C1=O` (stereo not drawn) belongs 161 to 162 °C; to `Nc1c(OCCCNCc2ccccc2)cccc1[N+](=O)[O-]`, 66 to 67 °C. For `CCc1noc(-c2cn(-c3cc(Cl)ccc3OC)cn2)n1` the value was 139 to 140 °C.

Consider `O=S(=O)(c1cccc(-c2cc(-c3nc(-c4ccc(C(F)(F)F)cc4)cc(C(F)(F)F)n3)ccn2)c1)N1CCOCC1`, for which the melting point was 202 °C. For `Cc1cc(C)c2cccc(OCc3c(Cl)ccc(S(=O)(=O)N4CCC[C@H]4C(=O)N4CCN(C(=O)c5ccc(C(N)=NO)cn5)CC4)c3Cl)c2n1`, the melting point lay within 148 to 150 °C.

Consider `O=C1CN2CCCCC2=NN1c1ccc(Cl)cc1Cl`, for which the melting point was 115 to 117 °C. For the molecule `CC(C)(C)CC(=O)N[C@H]1CC[C@H](CCN2CCN(c3nccc4c3OCC4)CC2)CC1`, the melting point came out at 193 °C. For `CCN1CCC(O)(c2ccc(F)c(Cl)c2)C1` (stereo not drawn) the value was 157 to 158 °C; for `COc1cccc(S(N)(=O)=O)c1C`, 193 °C; for `CCOC(=O)c1cc(C)c2nc(CC)[nH]c2n1`, 151 to 153 °C. For `O=C1N(CCC2CC2)c2ccccc2C12COc1cc3c(cc12)OCO3` (stereo not drawn), the melting point lay within 125 to 127 °C.

The molecule `CCN1c2ncccc2C(=O)N(C)c2ccc(-c3c[nH]c(C#N)c3)nc21` showed a melting point of 268 to 269 °C. In the case of `Cc1ccc(O)c(-c2csc(N(C)C)n2)c1`, the melting point was in the range of 108 to 110 °C. Regarding `NC1CCCn2c1nc(-c1ccncc1)cc2=O` (racemic), the melting point fell in the range of 144 to 146 °C. For the molecule `Cn1cc(-c2cc(OC3CCCC3)c(Cl)cc2F)c(=O)cc1C(F)(F)F`, the melting point was in the range of 152 to 154 °C. `O=C(Nc1ccc(OCc2ccccc2)cc1)C(Br)CCBr` (racemic) came in with a melting point of 140 to 142 °C. On to `CC(C)(C)OC(=O)CN(C(=O)CNC(=O)Nc1ccccc1)c1ccccc1C(=O)c1ccccc1`, for which the melting point was 166 to 167 °C. `CC1C(=O)N(Cc2ccccc2)C(=S)N1c1ccc(Oc2ccccc2)cc1` (stereo not drawn) returned a melting point of 62 °C. The molecule `O=c1cc[nH]c2c([N+](=O)[O-])cc(Cl)cc12` returned a melting point of 238 to 241 °C. `Nc1ccc(CCNS(=O)(=O)c2cccc3[nH]nnc23)cc1` yielded a melting point of 178 to 179 °C. To `CC1(c2nnc(S(C)(=O)=O)s2)CC(F)(F)C1(F)Cl` (stereo not drawn) belongs 63 °C. `Cc1c2c(nn1-c1ccccc1)c(Cl)nc1ccccc12` showed a melting point of 208 to 209 °C. Molecule `CCOC(=O)CS(=O)(=O)Nc1c(C(C)C)cccc1C(C)C` yielded a melting point of 114 to 116 °C. For the molecule `Cc1cccc(C#CC2=CC(=NO)CCC2)n1`, the melting point lay in the range of 166 to 168 °C. For `COC(=O)Nc1cccc(-c2ccc3nncn3n2)c1` the value was 210 to 212 °C; for `CC(C)(C)C(=O)Nc1c[nH]nc1C(=O)NCCC#N`, 165 to 166 °C. To `COc1c(Cl)cc(C(=O)Nc2c(Cl)cncc2Cl)c2c3ccccc3n(CC3CCCCC3)c12` belongs 247 to 249 °C; to `COc1nc(Cn2cncn2)cnc1NS(=O)(=O)c1cccc(Cl)c1Cl`, 95 to 105 °C; to `CCOC(=O)C(=O)CC(=O)c1cn(CCCCc2ccccc2)c2ccccc2c1=O`, 88 to 90 °C. On to `Cn1cc(-c2cccc(O)c2)c(=O)c(C2CCCCC2)c1`, for which the melting point lay within 155 to 165 °C. Take `CCCNC(=S)Nc1nc2ccc(OC(F)(F)F)cc2s1`: the melting point is 226 to 228 °C.

`CC(C)C[C@H](N)C(=O)N[C@@H](CC1CCCCC1)[C@@H](O)c1nccs1` displayed a melting point of 140 to 141 °C. In turn, `COc1ccc(-c2cn3ccccc3n2)cc1` registered a melting point of 131 to 134 °C. With `O=C1CCCCC1C(=S)Nc1ccc(Br)cc1F` (stereo not drawn), the melting point fell in the range of 94 to 95 °C.

On to `O=C1CCCC(CNC(=O)c2cc(O)ccc2OCC(F)(F)F)N1` (stereo not drawn), for which the melting point was in the range of 156 to 158 °C. The molecule `O=[N+]([O-])c1cc(Cl)c(Br)cc1Cl` yielded a melting point of 50 to 53 °C. In turn, `CCOc1nn(C(=O)NS(=O)(=O)c2c(C(=O)N(C)C)csc2C)c(=O)n1C` had a melting point of 162 °C. As for `NS(=O)(=O)c1ccc(/C(=C(\CCO)C(=O)O)c2ccc(F)cc2)cc1`, the melting point lay in the range of 160 to 162 °C.

With `O=C(O)Cc1ccc2c(c1)sc1cc(Cl)ccc12`, the melting point lay in the range of 198 to 200 °C. For `Cc1ccccc1-c1cn2c(n1)-c1ccccc1Nc1ncccc1-2`, the melting point was in the range of 215 to 217 °C. To `COc1ccc2sc3ccccc3c2c1` belongs 54 to 55 °C; to `O=C(c1ccc([N+](=O)[O-])cc1Cl)N1CCCCc2ccccc21`, 112 to 114 °C. `CNC(=O)c1cccc(NC(=O)Cc2c(O)ccc3ccccc23)c1` came in with a melting point of 229 to 230 °C. `N#Cc1ccc(C(=Cc2ccc(C#N)cn2)Cn2cncn2)cc1` came in with a melting point of 211 °C. `CC(O)c1cc(Br)c(N)c(CN(C)C)c1` (stereo not drawn) registered a melting point of 69 to 72 °C. To `Cc1ccc2c3c(ccc2n1)OC[C@H](CN1CCN(c2ccc4ccccc4n2)C[C@@H]1C)O3` belongs 78 to 82 °C. Molecule `NCCNCC(O)COc1ccccc1C(N)=O` (stereo not drawn) returned a melting point of 91 to 93 °C. Turning to `CC(C)(CNC(=O)/C(CCO)=C(\c1ccc(Cl)cc1)c1ccc(S(C)(=O)=O)cc1)SN=O`, the melting point was 150 to 153 °C.

`O=C(Nc1ccc2[nH]ncc2c1)N[C@@H](c1ccccc1)[C@@H]1CCCCN1` gave a melting point of 147 to 149 °C.

Regarding `O=C1c2ccccc2N(N2CCOCC2)C2=NCCN12`, the melting point lay in the range of 250 to 251 °C. The molecule `COc1cc(O)c(C=O)c(-c2nc(C)no2)c1C` came in with a melting point of 135 to 136 °C. In turn, `CS(=O)(=O)c1ccc(-n2nc(C(=O)N3CCOCC3)cc2-c2ccc(-c3ccco3)cc2)cc1F` returned a melting point of 221 to 222 °C.

In turn, `O=C1NS(=O)Oc2ccccc21` (stereo not drawn) returned a melting point of 180 to 182 °C. Regarding `COc1cccc2c(C(F)(F)F)cc(C)nc12`, the melting point was 112 to 113 °C. Regarding `CC(C)n1nc(-c2c(-c3ccccc3)nn3ccc(O)cc23)ccc1=O`, the melting point is more than 250 °C.

Consider `CN(c1nc(=O)n(C)cc1F)S(=O)(=O)Cc1ccccc1`, for which the melting point lay within 159 to 160 °C.

Turning to `CC(C)(C)c1cc(C(=O)c2ccccn2)cc2c1OCC2(C)C`, the melting point was 95 to 97 °C. Turning to `CCN(C(=O)c1ccccc1)[C@@H](Cc1c[nH]c2ccccc12)C(=O)OC(=O)c1ccc(N)cc1`, the melting point fell in the range of 181 to 183 °C.

As for `O=C(Nc1cccnc1)N1CCN(c2nccc(-c3ccc(F)c(F)c3)n2)CC1`, the melting point lay in the range of 231 to 232 °C.

The molecule `NC(=O)CNC(=O)c1ccc(-c2cccc3cc(COc4cccc(C(F)(F)F)c4)sc23)cc1` registered a melting point of 164 to 165 °C. Molecule `Cc1nc2ccccc2n2cnc(C(=O)OC(C)(C)C)c12` displayed a melting point of 176 to 177 °C. In the case of `CCOC(=O)N1CCN(c2c(F)c(N)c3c(=O)c(C(=O)O)cn(C4CC4)c3c2F)C(C)C1` (stereo not drawn), the melting point was 220 to 225 °C. As for `O=C(N1CCCC1)n1c(CN2CCN(c3ccccn3)CC2)nc2ccccc21`, the melting point was 120 to 121 °C. In turn, `CC(C)(C)c1ccc(-n2cc(C(=O)O)c(=O)c3ccc(-c4ccncc4)cc32)cc1` displayed a melting point of 251 to 252 °C. The molecule `O=C1C(c2ccccc2)N(c2ccc(Oc3ccccc3)cc2)C(=S)N1c1ccccc1` (stereo not drawn) came in with a melting point of 100 °C. As to `O=C(/C=C/c1ccc2ccccc2c1)Nc1cc(Cl)ccc1OCc1nnn[nH]1`, the melting point lay in the range of 218 to 223 °C. The molecule `O=C(CN1CCN(c2ccc(NC(=O)c3ccccc3-c3ccc(C(F)(F)F)cc3)cc2)CC1)NCc1cccc(-c2ccccc2)c1` registered a melting point of 165 to 167 °C. To `COc1ccc2ccccc2c1CCl` belongs 122 to 123 °C; to `Cc1nc(N)c2ncn(Cc3cc(-c4ccc(F)cc4)no3)c2c1C`, 244 to 246 °C; to `O=C(C1CCCc2c1c1ccccc1n2Cc1ccccc1)N1CCCCC1` (stereo not drawn), 249 to 252 °C. With `CCN(CC)C(=O)COc1nc(-c2ccccc2)cc2ccccc12`, the melting point was 102 °C. In the case of `CN1C(=O)CN(C(N)=O)C(c2ccccc2)c2cc(Cl)ccc21` (stereo not drawn), the melting point is 214 to 217 °C. `COc1ccc(OCc2ccccc2)cc1CC#N` displayed a melting point of 63 to 65 °C. On to `CCCC/C=C\c1c([C@H](O)[C@H](CCCC)NC(=O)[C@H](CC(C)C)NC(=O)OCC2CCCCC2)c1=O`, for which the melting point lay within 138 to 140 °C. `COc1cc2c(cc1OC)CN(CCCc1cccc(NC(=O)c3cccc4c(=O)c5cccc(OC)c5[nH]c34)c1)CC2` showed a melting point of 138 to 140 °C. As for `CCOC(=O)N1CCN(c2ccc(-n3cnn(C(C)(C)C(=O)c4ccc(Cl)cc4)c3=O)cc2)CC1`, the melting point turned out to be 137 °C. `CN(c1cccc2cc(C3=NCC(CC(=O)NS(C)(=O)=O)S3)[nH]c12)S(=O)(=O)c1cccs1` (stereo not drawn) came in with a melting point of 141 °C. To `COC(=O)C1CCN(Cc2ccc(-c3ccc4c(Nc5ccc(Sc6nccn6C)c(Cl)c5)c(C#N)cnc4c3)nc2)CC1` belongs 135 to 137 °C.

For the molecule `COc1ccc(-c2sc(C=NO)c(-c3cccc(OC)c3)c2C)cc1`, the melting point lay in the range of 122 to 141 °C. Consider `COc1cc(OC)nc(C2OC(=O)c3ncccc32)n1` (stereo not drawn), for which the melting point lay in the range of 167 to 168 °C. Consider `COC(=O)c1ccc(Cc2cccc3ccc(C=O)cc23)c(OC)c1`, for which the melting point was in the range of 103 to 104 °C.
